Measured values taken from patent publication US5858975A, “Oxyntomodulin peptide having cardiotonic activity and insulin release-bromating activity” (Kyowa Hakko Kogyo Co., Ltd., priority 1994, dated 1999).

Experiments:
[1] = system: plasma insulin concentration; experiment: Effect of OXM on plasma insulin concentration of anesthetized rat; type: in vivo; conditions: anesthetized fasted male SD rats, cumulative administration via jugular vein, blood 5 minutes after each dose; FIG. 3
Method: Test Example 2 Effect of OXM on Plasma Insulin Concentration of Anesthetized Rat
Male SD rats (370 to 450 g) were bred with no feed for from 15 to 20 hours, and then Na pentobarbital (50 mg/kg) was intra-abdominally administered thereto. A blood-collecting cannula was inserted into the carotid artery of each rat. A dosed cannula was inserted into the jugular vein of each rat. About 600 μl of blood was collected from each rat before the administration of a test chemical, and 5 minutes after each administration of a varying dose of the said test chemical. OXM obtained in Example 2 was added to physiological saline solution to adjust concentration of 1 mg/ml. The said OXM solution was diluted with a physiological saline solution, the thus-diluted solution was accumulatively administered to each rat. The dose of the solution was 1 ml/kg. The collected blood was centrifuged, and its insulin concentration was measured according to the Insulin-EIA Test (Wako Pure Chemicals).

eel atrium = experiment: Effect of OXM in eel atrium (isolated atrium, tension transducer); conditions: isolated eel atrium in Ringer's solution, varying OXM concentration
Method: Test Example 1 Effect of OXM in Eel Atrium
An atrium was taken out of an eel, and one end of said atrium was fixed to the bottom of syringe filled with 1.5 ml of Ringer's solution in which was introduced a mixed gas of oxygen and carbon dioxide (95:5), while the other end thereof was connected to a tension transducer (NEC) via a silk thread. 15 μl of an aqueous solution of OXM as diluted with distilled water to have a varying concentration was added to said Ringer's solution, whereupon the tension to be generated by the atrial contraction was measured through the tension transducer. OXM used herein was the product as produced in Example 2. During this measurement, the atrial rate was also counted.

H-HSQGTFTNDYSKYLETRRAQDFVQWLMNSKRSGGPT-OH [OXM]
dose at which plasma insulin concentration is increased [1]: ≥ 0.01 mg/kg | atrial systole (atrial tension) (eel atrium; FIG. 1): dose-dependently increases | atrial rate (eel atrium; FIG. 2): dose-dependently increases
